≈ marks a conversion by molar mass, not a printed value. Marks after values point to notes of the source that are not given here.
Experiments:
[1] = test system: AI-2 activity of APEC O2; test: AI-2 bioluminescence indicator assay (V. harveyi BB170); conditions: APEC O2, 100 µM
[2] = test system: AI-2 activity of APEC O8; test: as above; conditions: APEC O8, 100 µM
[3] = test system: AI-2 activity of APEC O18; test: as above; conditions: APEC O18, 100 µM
[4] = test system: APEC O2 in THP-1 cells; test: Intracellular survival assay (AI-2 inhibitors); conditions: O2, THP-1, 100 µM, 6 h
[5] = test system: AI-2 activity of APEC O1; test: AI-2 bioluminescence indicator assay (V. harveyi BB170); conditions: APEC O1, 100 µM
[6] = test system: AI-2 activity of APEC O78; test: as above; conditions: APEC O78, 100 µM
[7] = test system: AI-2 activity of APEC O15; test: as above; conditions: APEC O15, 100 µM
[8] = test system: AI-2 activity of APEC O109; test: as above; conditions: APEC O109, 100 µM
[9] = test system: APEC O78 in HD-11 cells; test: Intracellular survival assay (AI-2 inhibitors); type: cell-based, avian pathogenic Escherichia coli (APEC); conditions: O78, HD-11, 100 µM, 6 h
From the text: Intracellular survival assay.

[10] = test system: APEC O2 in HD-11 cells; test: Intracellular survival assay (AI-2 inhibitors); conditions: O2, HD-11, 100 µM, 6 h
[11] = test system: AI-2 activity of APEC O115; test: AI-2 bioluminescence indicator assay (V. harveyi BB170); conditions: APEC O115, 100 µM
[12] = test system: AI-2 activity of APEC O35; test: as above; conditions: APEC O35, 100 µM
[13] = test system: QS and virulence associated genes of APEC O78; test: qRT-PCR of QS-regulated and virulence factors genes; type: cell-based, avian pathogenic Escherichia coli (APEC); conditions: 100 µM, 10 h
Method: Quantitative real-time reverse transcription PCR (qRT-PCR). […] APEC O78 was grown in the presence of 100 µM of each compound in a 96-well plate at 37° C. for 10 h. APEC O78 culture treated with 1 µL of 100% DMSO was used as […]. Total RNA was extracted from duplicate wells for each compound (200 µL) using a miRNeasy Mini Kit (Qiagen). RNA quality and quantity was determined by nanodrop 2000 C spectrophotometer (Thermo scientific). Traces of DNA was removed using Genomic DNA removal mix (Qiagen). Approximately, 5 µg of purified RNA was used to synthesize cDNA using the Qiagen RT^2 First Strand Kit (Qiagen). The qRT-PCR was performed using SensiMix™ SYBER® Hi-Rox qPCR Master Mix (Bioline) according to manufacturer instructions in a realplex^2 mastercycler (Eppendorf) with 55° C. annealing temperature. Gene-specific primers were designed using PrimerQuest Tool and obtained from integrated DNA technologies (IDT). The data were normalized to the house-keeping gene, glyceraldehyde-3-phosphate dehydrogenase (GAPDH). The relative fold change was calculated using the ΔΔCt method. Three independent experiments were conducted.

[14] = test system: APEC O2-211; type: cell-based, avian pathogenic Escherichia coli (APEC); conditions: APEC O2-211, M63 media; MIC/MBC
[15] = test system: APEC O78-53; type: cell-based, avian pathogenic Escherichia coli (APEC); conditions: APEC O78-53, M63 media; MIC/MBC
[16] = test system: intracellular APEC O78 in HD11 cells; test: Intracellular survival assay (cidal SMs); conditions: O78, HD11, 6 h treatment; superscript = multiple of MIC
[17] = test system: APEC O1; type: cell-based, avian pathogenic Escherichia coli (APEC); conditions: APEC O1, M63 media; MIC/MBC
[18] = test system: APEC O35; type: cell-based, avian pathogenic Escherichia coli (APEC); conditions: APEC O35, M63 media; MIC/MBC
[19] = test system: APEC O78; test: Loss of 260/280 nm absorbing materials assay; type: cell-based, avian pathogenic Escherichia coli (APEC); conditions: 2X MBC, 1 h, *P<0.05 vs DMSO
[20] = test system: intracellular APEC O1 in Caco-2 cells; test: Intracellular survival assay (cidal SMs); conditions: O1, Caco-2, 6 h treatment; superscript = multiple of MIC
[21] = test system: intracellular APEC O1 in THP-1 cells; test: Intracellular survival assay (cidal SMs); conditions: O1, THP-1, 6 h treatment; superscript = multiple of MIC
[22] = test system: APEC O109; type: cell-based, avian pathogenic Escherichia coli (APEC); conditions: APEC O109, M63 media; MIC/MBC
[23] = test system: intracellular APEC O2 in HD11 cells; test: Intracellular survival assay (cidal SMs); conditions: O2, HD11, 6 h treatment; superscript = multiple of MIC
[24] = test system: intracellular APEC O2 in Caco-2 cells; test: Intracellular survival assay (cidal SMs); conditions: O2, Caco-2, 6 h treatment; superscript = multiple of MIC
[25] = test system: APEC O8; type: cell-based, avian pathogenic Escherichia coli (APEC); conditions: APEC O8, M63 media; MIC/MBC
[26] = test system: intracellular APEC O2 in THP-1 cells; test: Intracellular survival assay (cidal SMs); conditions: O2, THP-1, 6 h treatment; superscript = multiple of MIC
[27] = test system: APEC O78; type: cell-based, avian pathogenic Escherichia coli (APEC)
[28] = test system: APEC O115; type: cell-based, avian pathogenic Escherichia coli (APEC); conditions: APEC O115, M63 media; MIC/MBC
[29] = test system: APEC O78; test: Confocal microscopy bacterial cytological profiling; type: cell-based, avian pathogenic Escherichia coli (APEC); conditions: 2X MBC
Method: Confocal and scanning electron microscopy. Confocal microscopy was used for bacterial cytological profiling (BCP) to identify the cellular pathways targeted by SMs as described previously. […] After incubation, treated cultures were centrifuged, washed, and resuspended in 100 μL PBS. […] Cultures were then centrifuged, washed, and resuspended in PBS to 1⁄10th volume of the original cultures.

[30] = test system: APEC O1-63; type: cell-based, avian pathogenic Escherichia coli (APEC); conditions: APEC O1-63, M63 media; MIC/MBC
[31] = test system: APEC O2; type: cell-based, avian pathogenic Escherichia coli (APEC); conditions: APEC O2, M63 media; MIC/MBC
[32] = test system: intracellular APEC O78 in THP-1 cells; test: Intracellular survival assay (cidal SMs); conditions: O78, THP-1, 6 h treatment; superscript = multiple of MIC
[33] = test system: intracellular APEC O1 in HD11 cells; test: Intracellular survival assay (cidal SMs); conditions: O1, HD11, 6 h treatment; superscript = multiple of MIC
[34] = test system: Shiga toxin-producing (STEC) O157 and O26 strains; type: cell-based, E. coli; conditions: 100 µM, M63 media
[35] = test system: APEC O18; type: cell-based, avian pathogenic Escherichia coli (APEC); conditions: APEC O18, M63 media; MIC/MBC
[36] = test system: biofilm embedded APEC O78; test: MBEC High-throughput assay; type: cell-based, avian pathogenic Escherichia coli (APEC); conditions: biofilm embedded APEC O78; superscript = multiple of MIC (footnote)
[37] = test system: APEC O15; type: cell-based, avian pathogenic Escherichia coli (APEC); conditions: APEC O15, M63 media; MIC/MBC
[38] = test system: intracellular APEC O78 in Caco-2 cells; test: Intracellular survival assay (cidal SMs); conditions: O78, Caco-2, 6 h treatment; superscript = multiple of MIC

## Fc1ccc(CN2CCCN(Cc3nc(-c4ccc(C(F)(F)F)cc4)no3)CC2)cc1 [C9, 1-(4-flurobenzyl)-4-((3-[4-(trifluoromethyl)phenyl]-1,2,4-oxadiazol-5-yl]methyl)-1,4-diazapane]
[1]
  Inhibition % of AI-2 activity: 51%
[2]
  Inhibition % of AI-2 activity: 20%
[3]
  Inhibition % of AI-2 activity: 14%
[4]
  clearance of intracellular APEC: 100%
[4]; vs DMSO
  reduction of intracellular survival: 4 logs
[5]
  Inhibition % of AI-2 activity: 19%
[6]
  Inhibition % of AI-2 activity: 79%
[7]
  Inhibition % of AI-2 activity: 0%
[8]
  Inhibition % of AI-2 activity: 66%
[9]
  clearance of intracellular APEC: 100%
[9]; vs DMSO
  reduction of intracellular survival: 4 logs
[10]
  clearance of intracellular APEC: 100%
[10]; vs DMSO
  reduction of intracellular survival: 3.3 logs
[11]
  Inhibition % of AI-2 activity: 44%
[12]
  Inhibition % of AI-2 activity: 36%
[13]
  expression of cheW: down-regulated
  expression of csrA: down-regulated
  expression of murD: down-regulated

## COc1ccc(CCN(Cc2cc3c(cc2Cl)OCO3)CC2CCN(C)CC2)cc1 [SM11]
[14]
  MBC: 100 µM (≈ 43.1 µg/mL)
  MIC: 100 µM (≈ 43.1 µg/mL)
[15]
  MBC: 200 µM (≈ 86.2 µg/mL)
  MIC: 100 µM (≈ 43.1 µg/mL)
[16]
  SMs intracellular APEC clearance concentration: 100^a µM
[17]
  MBC: 100 µM (≈ 43.1 µg/mL)
  MIC: 100 µM (≈ 43.1 µg/mL)
[18]
  MBC: 200 µM (≈ 86.2 µg/mL)
  MIC: 100 µM (≈ 43.1 µg/mL)
[19]; 260 nm absorbing material in supernatant
  Absorbance 260: 4.00*
[19]; 280 nm absorbing material in supernatant
  Absorbance 280: 2.89*
[20]
  SMs intracellular APEC clearance concentration: >200 µM
[21]
  SMs intracellular APEC clearance concentration: >200 µM
[22]
  MBC: 200 µM (≈ 86.2 µg/mL)
  MIC: 200 µM (≈ 86.2 µg/mL)
[23]
  SMs intracellular APEC clearance concentration: 200^b µM
[24]
  SMs intracellular APEC clearance concentration: 200^b µM
[25]
  MBC: 200 µM (≈ 86.2 µg/mL)
  MIC: 200 µM (≈ 86.2 µg/mL)
[26]
  SMs intracellular APEC clearance concentration: 100^a µM
[27]; APEC O78
  MBC relative to MIC: identical to MIC
[27]; APEC O78, M63 media, MIC/MBC
  MIC: 100 µM (≈ 43.1 µg/mL)
[27]; APEC O78, M63 media, cell prints MIC/MBC
  MBC: 100 µM (≈ 43.1 µg/mL)
[28]
  MBC: 200 µM (≈ 86.2 µg/mL)
  MIC: 200 µM (≈ 86.2 µg/mL)
[29]
  cytological profile (confocal, FM4-64 / SYTO-9): membrane pore formers
[30]
  MBC: 200 µM (≈ 86.2 µg/mL)
  MIC: 100 µM (≈ 43.1 µg/mL)
[31]
  MBC: 200 µM (≈ 86.2 µg/mL)
  MIC: 100 µM (≈ 43.1 µg/mL)
[32]
  SMs intracellular APEC clearance concentration: 100^a µM
[33]
  SMs intracellular APEC clearance concentration: 200^b µM
[34]
  activity against STEC O157 and O26 strains: not cidal
[35]
  MBC: 200 µM (≈ 86.2 µg/mL)
  MIC: 200 µM (≈ 86.2 µg/mL)
[36]
  MBEC: 400^d µM
[37]
  MBC: 100 µM (≈ 43.1 µg/mL)
  MIC: 100 µM (≈ 43.1 µg/mL)
[38]
  SMs intracellular APEC clearance concentration: 100^a µM

Reference: patent US20230355597A1, “COMPOUNDS, COMPOSITIONS, AND METHODS FOR THE TREATMENT AND PREVENTION OF AVIAN PATHOGENIC E. COLI (APEC)” (OHIO STATE INNOVATION FOUNDATION, priority 2018, published 2023)
